Columns and labels:
HMEC-1 cells = assay: MTT proliferation assay, cytotoxicity of DXR formulations; format: cell-based; conditions: Homo sapiens, total 96 h
Experimental: (§1) In vitro cytotoxicity of free doxorubicin (DXR) and DXR-containing liposomes was determined for […] and HMEC-1 cells using the MTT (3-(4,5-Dimethylthiazol-2-yl)-2,5-diphenyltetrazolium bromide) proliferation assay (Mosmann, 1983). Briefly, cells were plated in 96-well plates at a density of 8,000 cells per well and incubated with free DXR, non-targeted pH-sensitive (or non-pH-sensitve) liposomes containing DXR or targeted pH-sensitive (or non-pH-sensitve) liposomes containing DXR. Additional controls included free peptide and empty targeted liposomes. Cells were incubated for 1, 3, 24 and 48 h at 37° C. in an atmosphere of 95% humidity and 5% CO2. At the end of the incubation time, cells were gently washed twice with cold PBS to remove DXR and maintained in fresh medium for a total of 96 h. After incubation, the medium was replaced by a solution of 0.5 mg/ml MTT and the cells were further incubated for 4 h at 37° C. in an atmosphere of 95% humidity and 5% CO2. Crystals were dissolved in acidic isopropanol and absorbance in each well was read at 570 nm in a microplate reader (Multiscan EX—Thermo Electron Corporation). IC50 of DXR mediated by the different formulations was determined from the dose/response curves.

MDA-MB-435S cells = assay: as above; format: cell-based; conditions: Homo sapiens, total 96 h
Experimental: as §1

Compound: COc1cccc2c1C(=O)c1c(O)c3c(c(O)c1C2=O)C[C@@](O)(C(=O)CO)C[C@@H]3O[C@H]1C[C@H](N)[C@H](O)[C@H](C)O1 [DXR, Doxorubicin]
- IC50 (HMEC-1 cells; HMEC-1, HMEC-1, 1 h incubation with drug): 434 ± 30 nM
- IC50 (HMEC-1 cells; HMEC-1, HMEC-1, 3 h incubation with drug): 401 ± 59 nM
- IC50 (HMEC-1 cells; HMEC-1, HMEC-1, 24 h incubation with drug): 72 ± 10 nM
- IC50 (HMEC-1 cells; HMEC-1, HMEC-1, 48 h incubation with drug): 58 ± 8 nM
- IC50 (MDA-MB-435S cells; 1 h incubation with drug): 1610 ± 460 nM
- IC50 (MDA-MB-435S cells; 3 h incubation with drug): 1450 ± 270 nM
- IC50 (MDA-MB-435S cells; 24 h incubation with drug): 232 ± 45 nM
- IC50 (MDA-MB-435S cells; 48 h incubation with drug): 113 ± 78 nM

— patent US8741338B2, “Targeted delivery to human diseases and disorders” (Universidade de Coimbra, priority 2008, dated 2014)
